# From patent publication EP4635500A1, “THERAPEUTIC AGENT FOR BACTERIAL INFECTION” (Sumitomo Pharma Co., Ltd., priority 2022, dated 2024)
# Read-outs that look alike come from different tables or passages of the source.
# How the values were obtained:
# [1] = test system: Enterobacterales; test: MIC, broth microdilution, CDC/FDA Antibiotic Resistance Isolate Bank (Example 7, Tables 8, 11, 12); type: cell-based; details: for MIC50: carbapenemase-producing Enterobacterales, read-out: MIC50
# [2] = test system: A. baumannii; test: MIC, broth microdilution, CDC/FDA Antibiotic Resistance Isolate Bank (Example 7, Tables 9, 13, 14); type: cell-based, Acinetobacter baumannii; details: for MIC: read-out: MIC
# [3] = test system: 53 CRE and CPE strains; test: MICrange, MIC50, MIC80, MIC90 for 53 bacterial isolates (Example 5, Table 5); type: cell-based
# [4] = MIC distribution, metallo-β-lactamase-producing A. baumannii, inhibitor µg/mL in parentheses
smiles,measurement,setting,value
"CC(C)(O/N=C(\C(=O)N[C@@H]1C(=O)N2C(C(=O)[O-])=C(C[N+]3(CCNC(=O)c4ccc(O)c(O)c4Cl)CCCC3)CS[C@H]12)c1csc(N)n1)C(=O)O [Cefiderocol, cefiderocol]",MIC,"[1]; Klebsiella pneumoniae, KUB No. 5638, AR Bank # 141, read-out: MIC",≤ 0.06 µg/mL
same,MIC,"[1]; Klebsiella pneumoniae, KUB No. 5639, AR Bank # 142, read-out: MIC",< 0.06 µg/mL
same,MIC,"[1]; Klebsiella pneumoniae, KUB No. 5640, AR Bank # 143, read-out: MIC",1 µg/mL
same,MIC,"[1]; Klebsiella pneumoniae, KUB No. 5642, AR Bank # 145, read-out: MIC",0.25 µg/mL
same,MIC,"[1]; Klebsiella pneumoniae, KUB No. 5643, AR Bank # 146, read-out: MIC",0.25 µg/mL
same,MIC,"[1]; Klebsiella pneumoniae, KUB No. 5645, AR Bank # 148, read-out: MIC",0.5 µg/mL
same,MIC,"[1]; Klebsiella pneumoniae, KUB No. 5649, AR Bank # 152, read-out: MIC",0.25 µg/mL
same,MIC,"[1]; Klebsiella pneumoniae, KUB No. 5650, AR Bank # 153, read-out: MIC",1 µg/mL
same,MIC,"[1]; Klebsiella pneumoniae, KUB No. 5655, AR Bank # 158, read-out: MIC",0.5 µg/mL
same,MIC,"[1]; Klebsiella pneumoniae, KUB No. 5657, AR Bank # 160, read-out: MIC",0.25 µg/mL
same,MIC,"[1]; Klebsiella pneumoniae, KUB No. 5757, AR Bank # 361, read-out: MIC",1 µg/mL
same,MIC,"[1]; Klebsiella pneumoniae, KUB No. 5759, AR Bank # 363, read-out: MIC",0.25 µg/mL
same,MIC,"[1]; Klebsiella pneumoniae, KUB No. 5760, AR Bank # 364, read-out: MIC",2 µg/mL
same,MIC,"[1]; Klebsiella pneumoniae, KUB No. 5772, AR Bank # 376, read-out: MIC",1 µg/mL
same,MIC,"[1]; Klebsiella pneumoniae, Klebsiella pneumoniae KUB No. 5784, AR Bank #438, read-out: MIC",0.5 µg/mL
same,MIC,"[1]; Klebsiella pneumoniae, Klebsiella pneumoniae KUB No. 5797, AR Bank #453, read-out: MIC",0.25 µg/mL
same,MIC,"[1]; Klebsiella pneumoniae, Klebsiella pneumoniae KUB No. 5809, AR Bank #504, read-out: MIC",0.25 µg/mL
same,MIC,"[1]; Klebsiella pneumoniae, Klebsiella pneumoniae KUB No. 5810, AR Bank #505, read-out: MIC",0.5 µg/mL
same,MIC,"[1]; Klebsiella pneumoniae, Klebsiella pneumoniae KUB No. 5811, AR Bank #506, read-out: MIC",2 µg/mL
same,MIC,"[1]; Klebsiella pneumoniae, Klebsiella pneumoniae KUB No. 5812, AR Bank #507, read-out: MIC",2 µg/mL
same,MIC,"[1]; Klebsiella pneumoniae, Klebsiella pneumoniae KUB No. 5827, AR Bank #522, read-out: MIC",2 µg/mL
same,MIC,"[1]; Klebsiella pneumoniae, Klebsiella pneumoniae KUB No. 5828, AR Bank #523, read-out: MIC",1 µg/mL
same,MIC,"[1]; Klebsiella pneumoniae, Klebsiella pneumoniae KUB No. 5829, AR Bank #524, read-out: MIC",0.5 µg/mL
same,MIC,"[1]; Klebsiella pneumoniae, Klebsiella pneumoniae KUB No. 5830, AR Bank #525, read-out: MIC",2 µg/mL
same,MIC,"[1]; Kluyvera ascorbata, KUB No. 5641, AR Bank # 144, read-out: MIC",≤ 0.06 µg/mL
same,MIC,"[1]; Morganella morganii, KUB No. 5630, AR Bank # 133, read-out: MIC",≤ 0.06 µg/mL
same,MIC,"[1]; Proteus mirabilis, KUB No. 5556, AR Bank# 59, read-out: MIC",0.25 µg/mL
same,MIC,"[1]; Proteus mirabilis, KUB No. 5652, AR Bank # 155, read-out: MIC",≤ 0.06 µg/mL
same,MIC,"[1]; Proteus mirabilis, KUB No. 5653, AR Bank # 156, read-out: MIC",< 0.06 µg/mL
same,MIC,"[1]; Proteus mirabilis, KUB No. 5656, AR Bank # 159, read-out: MIC",0.5 µg/mL
same,MIC,"[1]; Proteus mirabilis, KUB No. 5773, AR Bank # 377, read-out: MIC",≤ 0.06 µg/mL
same,MIC,"[1]; Proteus mirabilis, KUB No. 5775, AR Bank # 379, read-out: MIC",2 µg/mL
same,MIC,"[1]; Providencia rettgeri, KUB No. 5579, AR Bank # 82, read-out: MIC",≤ 0.06 µg/mL
same,MIC,"[1]; Salmonella enterica, Salmonella Senftenberg, KUB No. 5624, AR Bank # 127, read-out: MIC",1 µg/mL
same,MIC,"[1]; Serratia marcescens, KUB No. 5588, AR Bank # 91, read-out: MIC",≤ 0.06 µg/mL
same,MIC,"[1]; Serratia marcescens, KUB No. 5596, AR Bank # 99, read-out: MIC",0.25 µg/mL
same,MIC,"[1]; Serratia marcescens, KUB No. 5618, AR Bank # 121, read-out: MIC",0.12 µg/mL
same,MIC,"[1]; Serratia marcescens, KUB No. 5619, AR Bank # 122, read-out: MIC",0.12 µg/mL
same,MIC,"[1]; Serratia marcescens, KUB No. 5620, AR Bank # 123, read-out: MIC",< 0.06 µg/mL
same,MIC,"[1]; Serratia marcescens, KUB No. 5621, AR Bank # 124",≤0.0 µg/mL
same,MIC,"[1]; Serratia marcescens, KUB No. 5627, AR Bank # 130, read-out: MIC",0.12 µg/mL
same,MIC,"[1]; Serratia marcescens, KUB No. 5628, AR Bank # 131, read-out: MIC",50.1 µg/mL
same,MIC,"[1]; Serratia marcescens, Serratia marcescens KUB No. 5822, AR Bank #517, read-out: MIC",2 µg/mL
same,MIC,"[1]; Serratia marcescens, Serratia marcescens KUB No. 5826, AR Bank #521, read-out: MIC",0.5 µg/mL
same,MIC50,[1]; Metallo-β-lactamase (N = 47),1 µg/mL
same,MIC50,[1]; Serine carbapenemase (N=61),0.25 µg/mL
same,MICrange,[2]; 55 isolates of A. baumannii,≤0.06 to 16 µg/mL
same,MIC,"[2]; Acinetobacter baumannii, A. baumannii KUB No. 5567, AR Bank #70, OXA-58, OXA-100",≤ 0.06 µg/mL
same,MIC,"[2]; Acinetobacter baumannii, A. baumannii KUB No. 5575, AR Bank #78, OXA-71",4 µg/mL
same,MIC,"[2]; Acinetobacter baumannii, A. baumannii KUB No. 5580, AR Bank #83, OXA-23, OXA-69, NDM-1",16 µg/mL
same,MIC,"[2]; Acinetobacter baumannii, A. baumannii KUB No. 5585, AR Bank #88, OXA-64, NDM-1",2 µg/mL
same,MIC,"[2]; Acinetobacter baumannii, A. baumannii KUB No. 5598, AR Bank #101, OXA-24, OXA-65",0.5 µg/mL
same,MIC,"[2]; Acinetobacter baumannii, A. baumannii KUB No. 5599, AR Bank #102, OXA-66",0.12 µg/mL
same,MIC,"[2]; Acinetobacter baumannii, A. baumannii KUB No. 5706, AR Bank #273, OXA-23, OXA-66",0.12 µg/mL
same,MIC,"[2]; Acinetobacter baumannii, A. baumannii KUB No. 5707, AR Bank #274, OXA-66, OXA-72",0.12 µg/mL
same,MIC,"[2]; Acinetobacter baumannii, A. baumannii KUB No. 5708, AR Bank #275, OXA-23, OXA-66",0.5 µg/mL
same,MIC,"[2]; Acinetobacter baumannii, A. baumannii KUB No. 5709, AR Bank #276, no carbapenemase genes (-)",8 µg/mL
same,MIC,"[2]; Acinetobacter baumannii, A. baumannii KUB No. 5710, AR Bank #277, OXA-24, OXA-65",4 µg/mL
same,MIC,"[2]; Acinetobacter baumannii, A. baumannii KUB No. 5711, AR Bank #278, OXA-23, OXA-66",0.5 µg/mL
same,MIC,"[2]; Acinetobacter baumannii, A. baumannii KUB No. 5712, AR Bank #279, OXA-23, OXA-66",0.25 µg/mL
same,MIC,"[2]; Acinetobacter baumannii, A. baumannii KUB No. 5713, AR Bank #280, OXA-66",0.25 µg/mL
same,MIC,"[2]; Acinetobacter baumannii, A. baumannii KUB No. 5714, AR Bank #281, OXA-82",0.12 µg/mL
same,MIC,"[2]; Acinetobacter baumannii, A. baumannii KUB No. 5715, AR Bank #282, OXA-23, OXA-66",0.5 µg/mL
same,MIC,"[2]; Acinetobacter baumannii, A. baumannii KUB No. 5716, AR Bank #283, OXA-23, OXA-66",0.25 µg/mL
same,MIC,"[2]; Acinetobacter baumannii, A. baumannii KUB No. 5717, AR Bank #284, OXA-24, OXA-65",0.25 µg/mL
same,MIC,"[2]; Acinetobacter baumannii, A. baumannii KUB No. 5718, AR Bank #285, OXA-24, OXA-65",1 µg/mL
same,MIC,"[2]; Acinetobacter baumannii, KUB No. 5719, AR Bank #286",0.5 µg/mL
same,MIC,"[2]; Acinetobacter baumannii, KUB No. 5720, AR Bank #287",0.5 µg/mL
same,MIC,"[2]; Acinetobacter baumannii, KUB No. 5721, AR Bank #288",0.25 µg/mL
same,MIC,"[2]; Acinetobacter baumannii, KUB No. 5722, AR Bank #259",0.12 µg/mL
same,MIC,"[2]; Acinetobacter baumannii, KUB No. 5723, AR Bank #290",0.5 µg/mL
same,MIC,"[2]; Acinetobacter baumannii, KUB No. 5724, AR Bank #291",0.5 µg/mL
same,MIC,"[2]; Acinetobacter baumannii, KUB No. 5725, AR Bank #292",0.5 µg/mL
same,MIC,"[2]; Acinetobacter baumannii, KUB No. 5726, AR Bank #293",0.5 µg/mL
same,MIC,"[2]; Acinetobacter baumannii, KUB No. 5727, AR Bank #294",0.5 µg/mL
same,MIC,"[2]; Acinetobacter baumannii, KUB No. 5728, AR Bank #295",0.5 µg/mL
same,MIC,"[2]; Acinetobacter baumannii, KUB No. 5729, AR Bank #296",0.5 µg/mL
same,MIC,"[2]; Acinetobacter baumannii, KUB No. 5730, AR Bank #297",0.12 µg/mL
same,MIC,"[2]; Acinetobacter baumannii, KUB No. 5731, AR Bank #298",0.5 µg/mL
same,MIC,"[2]; Acinetobacter baumannii, KUB No. 5732, AR Bank #299",8 µg/mL
same,MIC,"[2]; Acinetobacter baumannii, KUB No. 5733, AR Bank #300",0.25 µg/mL
same,MIC,"[2]; Acinetobacter baumannii, KUB No. 5734, AR Bank #301",1 µg/mL
same,MIC,"[2]; Acinetobacter baumannii, KUB No. 5735, AR Bank #302",4 µg/mL
same,MIC,"[2]; Acinetobacter baumannii, KUB No. 5736, AR Bank #303",0.12 µg/mL
same,MIC,"[2]; Acinetobacter baumannii, KUB No. 5737, AR Bank #304",≤ 0.06 µg/mL
same,MIC,"[2]; Acinetobacter baumannii, KUB No. 5738, AR Bank #305",0.25 µg/mL
same,MIC,"[2]; Acinetobacter baumannii, KUB No. 5739, AR Bank #306",1 µg/mL
same,MIC,"[2]; Acinetobacter baumannii, KUB No. 5740, AR Bank #307",0.12 µg/mL
same,MIC,"[2]; Acinetobacter baumannii, KUB No. 5741, AR Bank #308",0.25 µg/mL
same,MIC,"[2]; Acinetobacter baumannii, KUB No. 5742, AR Bank #309",4 µg/mL
same,MIC,"[2]; Acinetobacter baumannii, KUB No. 5743, AR Bank #310",2 µg/mL
same,MIC,"[2]; Acinetobacter baumannii, KUB No. 5744, AR Bank #311",0.5 µg/mL
same,MIC,"[2]; Acinetobacter baumannii, KUB No. 5745, AR Bank #312",0.25 µg/mL
same,MIC,"[2]; Acinetobacter baumannii, KUB No. 5746, AR Bank #313",1 µg/mL
same,MIC50,"[2]; Acinetobacter baumannii, 55 isolates of A. baumannii, read-out: MIC50",0.5 µg/mL
same,MIC80,"[2]; Acinetobacter baumannii, 55 isolates of A. baumannii, read-out: MIC80",2 µg/mL
same,MIC90,"[2]; Acinetobacter baumannii, 55 isolates of A. baumannii, read-out: MIC90",4 µg/mL
same,Number of isolates at MIC 2 µg/mL,[2]; [4],2
same,Number of isolates at MIC 16 µg/mL,[2]; [4],1
same,MIC90,"[3]; 53 CRE and CPE strains, read-out: MIC90",4 µg/mL
same,MIC90,[3]; 53 bacterial isolates,4 µg/mL
same,MICrange,[3]; 53 bacterial isolates,≤0.06 to 8 µg/mL
same,MIC80,"[3]; 53 bacterial isolates, read-out: MIC80",2 µg/mL
